According to ChEMBL document CHEMBL5096208, “Installation of Pargyline, a LSD1 Inhibitor, in the HDAC Inhibitory Template Culminated in the Identification of a Tractable Antiprostate Cancer Agent” (J Med Chem, 2021):
The source made the active and inactive calls. No cut-off for these calls is given here.

Assays:
[1] = Metabolic stability in Beagle dog hepatocyte assessed as parent compound remaining at 10 uM by LC-MS/MS analysis; type: ADME, cell-based, Canis lupus familiaris; conditions: hepatocytes, read-out: Stability
[2] = AUC (0 to 24 hrs) in Sprague-Dawley rat at 25 mg/kg, po formulated using SMEDDS administered once via gavage measured upto 24 hrs post dose by UPLC-MS/MS analysis; type: ADME, organism-based; design: dose 25 mg/kg, time < 24 hrs, route po; conditions: in vivo
[3] = Metabolic stability in human hepatocyte assessed as parent compound remaining at 10 uM incubated for 240 mins by LC-MS/MS analysis; type: ADME, cell-based; conditions: hepatocytes, read-out: Stability
[4] = species on record: Homo sapiens; assay: Selectivity ratio of IC50 for human HDAC4 to IC50 for human HDAC6
[5] = Cmax in Sprague-Dawley rat at 25 mg/kg, po administered once via gavage measured upto 24 hrs post dose by UPLC-MS/MS analysis; type: ADME, organism-based; design: dose 25 mg/kg, time < 24 hrs, route po; conditions: in vivo
[6] = AUC (0 to infinity) in Sprague-Dawley rat at 25 mg/kg, po formulated using SMEDDS administered once via gavage measured upto 24 hrs post dose by UPLC-MS/MS analysis; type: ADME, organism-based; design: dose 25 mg/kg, time < 24 hrs, route po; conditions: in vivo
[7] = tested on: PC-3; assay: Antiproliferative activity against human PC-3 cells assessed as cell growth inhibition at upto 10 uM incubated for 48 hrs by MTT assay; type: functional, cell-based
[8] = tested on: PC-3; assay: Induction of H3K4ME2 accumulation in human PC-3 cells at 0.5 to 10 uM incubated for 48 hrs by Western blot analysis; type: functional, cell-based; conditions: dose 0.5-10 µM
[9] = Metabolic stability in Beagle dog hepatocyte assessed as parent compound remaining at 10 uM incubated for 120 mins by LC-MS/MS analysis; type: ADME, cell-based, Canis lupus familiaris; conditions: hepatocytes, read-out: Stability
[10] = Metabolic stability in Beagle dog hepatocyte assessed as intrinsic clearance at 10 uM by LC-MS/MS analysis; type: ADME, cell-based, Canis lupus familiaris; conditions: hepatocytes, read-out: CLH
[11] = species on record: Homo sapiens; assay: Selectivity ratio of IC50 for human HDAC10 to IC50 for human HDAC6
[12] = tested on: PC-3; assay: Antitumor activity against human PC-3 cells xenografted in athymic nude mouse assessed as tumor growth inhibition at 100 mg/kg, po qd measured upto 25 days by caliper method relative to control; type: functional; conditions: PC-3, 600 h, time <= 25 day, read-out: TGI
[13] = species on record: Homo sapiens; assay: Selectivity ratio of IC50 for human HDAC2 to IC50 for human HDAC6
[14] = tested on: DU-145; assay: Antiproliferative activity against human DU-145 cells assessed as cell growth inhibition incubated for 48 hrs by MTT assay; type: functional
[15] = tested on: PC-3; assay: Upregulation of acetyl-histone H3 in human PC-3 cells at 0.625 to 5 uM by Western blot analysis; type: functional, cell-based; conditions: dose 0.625-5 µM
[16] = molecular target: Histone deacetylase 3 (Homo sapiens, UniProt O15379); assay: Inhibition of human HDAC3 (379 to 382 residues) using RHKKAc as flurogenic substrate
[17] = species on record: Homo sapiens; assay: Selectivity ratio of IC50 for human HDAC3 to IC50 for human HDAC6
[18] = Metabolic stability in human hepatocyte assessed as parent compound remaining at 10 uM incubated for 120 mins by LC-MS/MS analysis; type: ADME, cell-based; conditions: hepatocytes, read-out: Stability
[19] = Half life in Sprague-Dawley rat at 25 mg/kg, po formulated using SMEDDS administered once via gavage measured upto 24 hrs post dose by UPLC-MS/MS analysis; type: ADME, organism-based; conditions: in vivo
[20] = AUC (0 to 24 hrs) in Sprague-Dawley rat at 25 mg/kg, po administered once via gavage measured upto 24 hrs post dose by UPLC-MS/MS analysis; type: ADME, organism-based; design: dose 25 mg/kg, time < 24 hrs, route po; conditions: in vivo
[21] = AUC (0 to infinity) in Sprague-Dawley rat at 2 mg/kg, iv administered as single dose through tail vein measured upto 24 hrs post dose by UPLC-MS/MS analysis; type: ADME, organism-based; design: dose 2 mg/kg, time < 24 hrs, route iv; conditions: in vivo
[22] = tested on: DU-145; assay: Upregulation of acetyl-tubulin in human DU-145 cells at 0.625 to 5 uM by Western blot analysis; type: functional, cell-based; conditions: dose 0.625-5 µM
[23] = Metabolic stability in Beagle dog hepatocyte assessed as parent compound remaining at 10 uM incubated for 30 mins by LC-MS/MS analysis; type: ADME, cell-based, Canis lupus familiaris; conditions: hepatocytes, read-out: Stability
[24] = Tmax in Sprague-Dawley rat at 25 mg/kg, po formulated using SMEDDS administered once via gavage measured upto 24 hrs post dose by UPLC-MS/MS analysis; type: ADME, organism-based; conditions: in vivo
[25] = Metabolic stability in Beagle dog hepatocyte assessed as parent compound remaining at 10 uM incubated for 240 mins by LC-MS/MS analysis; type: ADME, cell-based, Canis lupus familiaris; conditions: hepatocytes, read-out: Stability
[26] = molecular target: Histone deacetylase 1 (Homo sapiens, UniProt Q13547); assay: Inhibition of human HDAC1 (379 to 382 residues) using RHKKAc as flurogenic substrate
[27] = Metabolic stability in Sprague-Dawley rat hepatocyte assessed as parent compound remaining at 10 uM incubated for 60 mins by LC-MS/MS analysis; type: ADME, cell-based; conditions: hepatocytes, read-out: Stability
[28] = molecular target: T1, Histone deacetylase 8 (Homo sapiens, UniProt Q9BY41); assay: Inhibition of human HDAC8 (379 to 382 residues) using RHKAcKAc as flurogenic substrate
T1 sequence (Q9BY41 whole entry): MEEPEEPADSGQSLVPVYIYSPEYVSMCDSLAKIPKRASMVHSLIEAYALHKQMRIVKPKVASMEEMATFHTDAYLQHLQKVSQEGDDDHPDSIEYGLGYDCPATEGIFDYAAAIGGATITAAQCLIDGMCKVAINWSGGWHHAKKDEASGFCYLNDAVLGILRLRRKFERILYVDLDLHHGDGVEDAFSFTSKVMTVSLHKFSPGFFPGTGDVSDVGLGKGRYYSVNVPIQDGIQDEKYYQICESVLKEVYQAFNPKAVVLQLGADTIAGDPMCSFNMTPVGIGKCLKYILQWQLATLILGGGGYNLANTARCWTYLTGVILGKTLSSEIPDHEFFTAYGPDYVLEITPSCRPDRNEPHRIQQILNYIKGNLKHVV

[29] = tested on: DU-145; assay: Induction of H3K4ME2 accumulation in human DU-145 cells at 0.5 to 10 uM incubated for 48 hrs by Western blot analysis; type: functional, cell-based; conditions: dose 0.5-10 µM
[30] = tested on: PC-3; assay: Induction of cell death in LSD1 knockdown human PC-3 cells assessed as activation of procaspase-9 at 1.25 to 10 uM by Western blot analysis; type: functional, cell-based; conditions: dose 1.25-10 µM
[31] = species on record: Homo sapiens; assay: Selectivity ratio of IC50 for […] IC50 for human full length recombinant MAO-B

Chain of Histone deacetylase 3 (O15379 whole entry, the tested form may be a part): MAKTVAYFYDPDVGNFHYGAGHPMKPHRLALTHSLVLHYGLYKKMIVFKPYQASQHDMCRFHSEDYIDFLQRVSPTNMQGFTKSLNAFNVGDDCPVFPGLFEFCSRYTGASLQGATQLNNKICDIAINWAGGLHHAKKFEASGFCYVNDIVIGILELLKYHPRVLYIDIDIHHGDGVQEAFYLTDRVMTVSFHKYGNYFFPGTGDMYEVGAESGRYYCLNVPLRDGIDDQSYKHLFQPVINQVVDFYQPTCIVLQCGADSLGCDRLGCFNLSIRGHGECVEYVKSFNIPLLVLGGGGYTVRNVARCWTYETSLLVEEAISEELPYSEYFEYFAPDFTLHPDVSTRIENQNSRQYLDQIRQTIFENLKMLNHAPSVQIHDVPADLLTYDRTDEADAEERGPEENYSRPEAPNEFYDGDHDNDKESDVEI
Chain of Histone deacetylase 1 (Q13547 whole entry, the tested form may be a part): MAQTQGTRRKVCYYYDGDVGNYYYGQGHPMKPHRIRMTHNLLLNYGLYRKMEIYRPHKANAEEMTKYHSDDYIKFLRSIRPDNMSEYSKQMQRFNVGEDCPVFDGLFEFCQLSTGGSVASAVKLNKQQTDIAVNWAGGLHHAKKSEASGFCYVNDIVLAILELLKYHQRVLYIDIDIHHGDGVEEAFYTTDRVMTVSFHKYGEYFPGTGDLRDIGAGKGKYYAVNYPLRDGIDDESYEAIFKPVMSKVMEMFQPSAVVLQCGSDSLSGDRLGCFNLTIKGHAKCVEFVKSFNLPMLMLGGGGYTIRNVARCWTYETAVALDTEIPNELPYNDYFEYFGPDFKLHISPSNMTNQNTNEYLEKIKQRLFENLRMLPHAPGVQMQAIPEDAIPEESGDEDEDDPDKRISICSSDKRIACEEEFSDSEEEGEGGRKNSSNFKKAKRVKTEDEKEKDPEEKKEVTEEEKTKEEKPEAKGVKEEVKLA

remaining at 10 µM [1]: 100% | AUC(0-t) at 24 h [2]: 587 ng·h/mL | remaining at 4 h, 10 µM [3]: 83.3% | Ratio IC50 [4]: > 500 | Cmax [5]: 74.1 ng/mL | AUC(0-inf) [6]: 596 ng·h/mL | remaining at 2 h, 10 µM [9]: 66.7% | CLint scaled at 10 µM [10]: 21.6 mL/min/kg | Ratio IC50 [11]: 18.7 | Ratio IC50 [13]: 77 | GI50 [14]: 420 nM | IC50 [16]: 133 nM | Ratio IC50 [17]: 5.8 | remaining at 2 h, 10 µM [18]: 95.5% | half-life [19]: 4.3 h | AUC(0-t) at 24 h [20]: 108 ng·h/mL | AUC(0-inf) [21]: 76.8 ng·h/mL | remaining at 0.5 h, 10 µM [23]: 91.6% | Tmax [24]: 0.9 h | remaining at 4 h, 10 µM [25]: 46.6% | IC50 [26]: 673 nM | remaining at 1 h, 10 µM [27]: 52.5% | IC50 [28]: 210 nM | Ratio IC50 [31]: 84
SMILES: C#CCN(C)Cc1cccc(NC(=O)CCCCCCC(=O)NO)c1
Activity [7]: Active | Activity [8]: Active | inhibition in vivo at 100 mg/kg [12]: 53.1% | Activity [15]: Active | Activity [22]: Active | Activity [29]: Active | Activity [30]: Active
